The source made the active and inactive calls. How the calls were made is not given here.
System: CCRIS mutagenicity, Ames/micronucleus/aberration tests
Experiment: CCRIS mutagenicity studies
[1] = Test System: AMES SALMONELLA TYPHIMURIUM, Strain/Indicator: TA98, Metabolic Activation: NONE, Method: STANDARD PLATE
[2] = Test System: AMES SALMONELLA TYPHIMURIUM, Strain/Indicator: TA98, Metabolic Activation: RAT, LIVER, S-9, AROCLOR 1254, Method: STANDARD PLATE
[3] = Test System: AMES SALMONELLA TYPHIMURIUM, Strain/Indicator: TA100, Metabolic Activation: NONE, Method: STANDARD PLATE
[4] = Test System: AMES SALMONELLA TYPHIMURIUM, Strain/Indicator: TA100, Metabolic Activation: RAT, LIVER, S-9, AROCLOR 1254, Method: STANDARD PLATE
[5] = Test System: AMES SALMONELLA TYPHIMURIUM, Strain/Indicator: TA1537, Metabolic Activation: NONE, Method: STANDARD PLATE
[6] = Test System: AMES SALMONELLA TYPHIMURIUM, Strain/Indicator: TA1538, Metabolic Activation: NONE, Method: STANDARD PLATE

## COC1=CC(=O)c2nc(C)c3c([nH]c4ccccc43)c2C1=O
Test System: AMES SALMONELLA TYPHIMURIUM, Strain/Indicator: TA97, Metabolic Activation: NONE, Method: STANDARD PLATE
  mutagenic call: active; positive
Test System: AMES SALMONELLA TYPHIMURIUM, Strain/Indicator: TA97, Metabolic Activation: RAT, LIVER, S-9, AROCLOR 1254, Method: STANDARD PLATE
  mutagenic call: active; positive
[1]
  mutagenic call: inactive; negative
[2]
  mutagenic call: active; positive
[3]
  mutagenic call: active; positive
[4]
  mutagenic call: inactive; negative
Test System: AMES SALMONELLA TYPHIMURIUM, Strain/Indicator: TA102, Metabolic Activation: NONE, Method: STANDARD PLATE
  mutagenic call: inactive; negative
Test System: AMES SALMONELLA TYPHIMURIUM, Strain/Indicator: TA102, Metabolic Activation: RAT, LIVER, S-9, AROCLOR 1254, Method: STANDARD PLATE
  mutagenic call: inactive; negative

## Nc1ccc2c(c1)[nH]c1ccccc12
[1]
  mutagenic call: active; positive
Test System: AMES SALMONELLA TYPHIMURIUM, Strain/Indicator: TA98, Metabolic Activation: RAT, LIVER, S-9, PHENOBARBITAL, Method: STANDARD PLATE
  mutagenic call: active; positive
[3]
  mutagenic call: inactive; negative
Test System: AMES SALMONELLA TYPHIMURIUM, Strain/Indicator: TA100, Metabolic Activation: RAT, LIVER, S-9, PHENOBARBITAL, Method: STANDARD PLATE
  mutagenic call: active; positive
[5]
  mutagenic call: inactive; negative
[6]
  mutagenic call: active; positive
Test System: AMES SALMONELLA TYPHIMURIUM, Strain/Indicator: TA1538, Metabolic Activation: RAT, LIVER, S-9, PHENOBARBITAL, Method: STANDARD PLATE
  mutagenic call: active; positive
Test System: AMES SALMONELLA TYPHIMURIUM, Strain/Indicator: TA1977, Metabolic Activation: NONE, Method: STANDARD PLATE
  mutagenic call: inactive; negative
Test System: AMES SALMONELLA TYPHIMURIUM, Strain/Indicator: TA1977, Metabolic Activation: RAT, LIVER, S-9, PHENOBARBITAL, Method: STANDARD PLATE
  mutagenic call: inactive; negative

## CCC(=O)Nc1snc2ccccc12
[3]
  mutagenic call: inactive; negative
Test System: AMES SALMONELLA TYPHIMURIUM, Strain/Indicator: TA100, Metabolic Activation: S-9, Method: STANDARD PLATE
  mutagenic call: inactive; negative
[5]
  mutagenic call: inactive; negative
Test System: AMES SALMONELLA TYPHIMURIUM, Strain/Indicator: TA1537, Metabolic Activation: S-9, Method: STANDARD PLATE
  mutagenic call: inactive; negative

## Cc1cc2ccccc2c2cc3c(cc12)C=C[C@H](O)[C@H]3O
Test System: AMES SALMONELLA TYPHIMURIUM, Strain/Indicator: TA100, Metabolic Activation: RAT, LIVER, S-9, AROCLOR 1254, Method: PREINCUBATION
  mutagenic call: active; positive

## O=[N+]([O-])c1ccc(N=Nc2ccc(N(CCO)CCO)cc2)c([N+](=O)[O-])c1
[1]
  mutagenic call: active; positive
[2]
  mutagenic call: active; positive
[3]
  mutagenic call: active; positive
[4]
  mutagenic call: active; positive
Test System: AMES SALMONELLA TYPHIMURIUM, Strain/Indicator: TA1535, Metabolic Activation: NONE, Method: STANDARD PLATE
  mutagenic call: active; positive
Test System: AMES SALMONELLA TYPHIMURIUM, Strain/Indicator: TA1535, Metabolic Activation: RAT, LIVER, S-9, AROCLOR 1254, Method: STANDARD PLATE
  mutagenic call: active; positive
[5]
  mutagenic call: active; positive
Test System: AMES SALMONELLA TYPHIMURIUM, Strain/Indicator: TA1537, Metabolic Activation: RAT, LIVER, S-9, AROCLOR 1254, Method: STANDARD PLATE
  mutagenic call: active; positive
[6]
  mutagenic call: active; positive
Test System: AMES SALMONELLA TYPHIMURIUM, Strain/Indicator: TA1538, Metabolic Activation: RAT, LIVER, S-9, AROCLOR 1254, Method: STANDARD PLATE
  mutagenic call: active; positive
Test System: CHINESE HAMSTER V-79, Strain/Indicator: V-79 (HGPRT)/6-THIOGUANINE, Metabolic Activation: RAT, LIVER, S-9, AROCLOR 1254
  mutagenic call: active; positive
Test System: CHINESE HAMSTER V-79, Strain/Indicator: V-79/6-THIOGUANINE, Metabolic Activation: NONE
  mutagenic call: inactive; negative
Test System: UDS RAT HEPATOCYTES, Strain/Indicator: THY INCORP, Metabolic Activation: NONE, Method: AUTORADIOGRAPHY
  mutagenic call: inactive; negative

## CCC1CCC(CCC(=O)[O-])C1.CCC1CCC(CCC(=O)[O-])C1.[Co+2] (stereo not given)
Test System: AMES SALMONELLA TYPHIMURIUM, Strain/Indicator: TA98, Metabolic Activation: HAMSTER, LIVER, S-9, AROCLOR 1254 (10%), Method: STANDARD PLATE
  mutagenic call: inactive; negative
[1]
  mutagenic call: inactive; negative
Test System: AMES SALMONELLA TYPHIMURIUM, Strain/Indicator: TA98, Metabolic Activation: RAT, LIVER, S-9, AROCLOR 1254 (10%), Method: STANDARD PLATE
  mutagenic call: active; positive
Test System: AMES SALMONELLA TYPHIMURIUM, Strain/Indicator: TA100, Metabolic Activation: HAMSTER, LIVER, S-9, AROCLOR 1254 (10%), Method: STANDARD PLATE
  mutagenic call: inactive; negative
[3]
  mutagenic call: inactive; negative
Test System: AMES SALMONELLA TYPHIMURIUM, Strain/Indicator: TA100, Metabolic Activation: RAT, LIVER, S-9, AROCLOR 1254 (10%), Method: STANDARD PLATE
  mutagenic call: inactive; negative
Test System: AMES SALMONELLA TYPHIMURIUM, Strain/Indicator: TA1537, Metabolic Activation: HAMSTER, LIVER, S-9, AROCLOR 1254 (10%), Method: STANDARD PLATE
  mutagenic call: inactive; negative
[5]
  mutagenic call: inactive; negative
Test System: AMES SALMONELLA TYPHIMURIUM, Strain/Indicator: TA1537, Metabolic Activation: RAT, LIVER, S-9, AROCLOR 1254 (10%), Method: STANDARD PLATE
  mutagenic call: inactive; negative
Test System: AMES SALMONELLA TYPHIMURIUM, Strain/Indicator: TA1538, Metabolic Activation: HAMSTER, LIVER, S-9, AROCLOR 1254 (10%), Method: STANDARD PLATE
  mutagenic call: inactive; negative
[6]
  mutagenic call: inactive; negative
Test System: AMES SALMONELLA TYPHIMURIUM, Strain/Indicator: TA1538, Metabolic Activation: RAT, LIVER, S-9, AROCLOR 1254 (10%), Method: STANDARD PLATE
  mutagenic call: active; positive
Test System: MOUSE LYMPHOMA, Strain/Indicator: L5178Y (TK+/TK-), Metabolic Activation: NONE, Method: SUSPENSION/PLATE
  mutagenic call: inactive; negative. reevaluation of results: negative
Test System: MOUSE LYMPHOMA, Strain/Indicator: L5178Y (TK+/TK-), Metabolic Activation: RAT, LIVER, S-9, AROCLOR 1254, Method: SUSPENSION/PLATE
  mutagenic call: inactive; negative. reevaluation of results: equivocal

## NC(Cc1ccc(Cl)cc1)C(=O)O (stereo not given)
Test System: AMES SALMONELLA TYPHIMURIUM, Strain/Indicator: TA98, Metabolic Activation: NONE
  mutagenic call: inactive; negative
Test System: AMES SALMONELLA TYPHIMURIUM, Strain/Indicator: TA100, Metabolic Activation: NONE
  mutagenic call: inactive; negative
Test System: AMES SALMONELLA TYPHIMURIUM, Strain/Indicator: TA1535, Metabolic Activation: NONE
  mutagenic call: inactive; negative
Test System: AMES SALMONELLA TYPHIMURIUM, Strain/Indicator: TA1537, Metabolic Activation: NONE
  mutagenic call: inactive; negative
Test System: B. SUBTILIS, Strain/Indicator: BD190 REC, Metabolic Activation: NONE, Method: SPOT TEST
  mutagenic call: inactive; negative
Test System: E.COLI, Strain/Indicator: WP6 POLA, Metabolic Activation: NONE, Method: SPOT TEST
  mutagenic call: inactive; negative

## Cc1ccc(NC(=O)c2csc([N+](=O)[O-])c2)cc1
[1]
  mutagenic call: active; positive
[3]
  mutagenic call: active; positive

## Oc1c(Cl)cccc1Cl
Test System: CHINESE HAMSTER V-79, Strain/Indicator: V-79/6-THIOGUANINE, Metabolic Activation: CELL-MEDIATED, Method: STANDARD PLATE
  mutagenic call: inactive; negative
Test System: CHINESE HAMSTER V-79, Strain/Indicator: V-79/6-THIOGUANINE, Metabolic Activation: NONE, Method: STANDARD PLATE
  mutagenic call: inactive; negative
Test System: CHINESE HAMSTER V-79, Strain/Indicator: V-79/6-THIOGUANINE, Metabolic Activation: PRIMARY RAT HEPATOCYTES, Method: STANDARD PLATE
  mutagenic call: inactive; negative
